Test results: patent US20230131559A1, “RECOMBINANT PEPTIDES THAT BIND TO A TUMOUR-SPECIFIC ANTIBODY FOR BREAST CANCER AND USE” (Universidade Federal de Uberlândia, priority 2019, published 2023)

What was measured:
[1] = test system: serum from 150 patients (BC, BBD, NC); test: ELISA of synthetic peptides against serum of 150 patients (diagnostic ability); assay type: binding, human; conditions: serum from 150 patients (50 from each study group)
Description: (§1) A microtiter plate was sensitized with 2.5 μg/well of each of the peptides diluted in carbonate/bicarbonate buffer (50 mM pH 9.6) and kept for 16 hours at 4° C. After blocking with PBS1X-BSA3% (1 hour at 37° C.) a single wash with PBS1X preceded the addition of FabC4 (1 ug), incubated for 1 hour at 37° C. After washing with PBS1X, anti-HA antibody which was labeled with peroxidase (Roche Applied Science) diluted 1:5000 in PBS-BSA3% for 1 h at 37° C. was added. After washing with PBS1X, the reaction with the OPD SigmaFast® (Sigma-Aldrich) substrate, interrupted with H2SO4 (2N), was analyzed in a spectrophotometer at a length of 492 nm (TP-Reader ThermoPlate).
The same conditions were used to analyze the diagnostic capacity of the peptides against the serum of the 150 patients previously described. Again, ANOVA and Mann Whitney tests were used for comparative purposes between groups with the aid of the GraphPad Prism 7.0 (GraphPad Software Inc.—La Jolla, Calif., USA) software. Values of P<0.05 were considered significant.

[2] = test system: FabC4 antibody fragment; test: ELISA of synthetic peptides for binding to FabC4; conditions: 2.5 μg/well peptide, FabC4 1 ug, 492 nm
Description: Clones A5, A7, C4 and D6, which were able to discriminate the serum of individuals with BC from BBD and NC by Phage-ELISA, were chemically synthesized by GenScript USA Inc. To increase immunogenicity, the peptides were coupled to BSA. Enzyme immunoassays were conducted to assess the ability of FabC4 antibody to recognize these peptides.
as §1

VTPCSSFSSFLP (listed as Homo sapiens) [pD6, chemically synthesized peptide of clone D6]
reactivity between the samples [1]: differential reactivity between the samples

VMPAAKYSLRVL (listed as Homo sapiens) [pC4, chemically synthesized peptide expressed in phage C4]
absorbance, binding to FabC4 by ELISA [2]: highest absorbance
